Experimental data taken from US9932300B2, “N,N′-diarylurea compounds and N,N′-diarylthiourea compounds as inhibitors of translation initiation” (President and Fellows of Harvard College, priority 2009, dated 2018).

Test system: eIF2-GTP-Met-tRNAi ternary complex
Experiment: Ternary complex assay (dual luciferase, firefly/renilla ratio) in stable KLN-tTA/pBISA-DL(ATF-4) cells; HTS and hit confirmation
Type: cell-based, mouse
Design: Activity 10 uM / Activity 2.5 uM / Activity 5 uM: unit not given here
Details: confirmed hits of the screen (Table 5); for Activity 2.5 uM: compound at 2.5 uM; for Activity 10 uM: compound at 10 uM; for Activity 5 uM: compound at 5 uM

| Compound | Activity 2.5 uM | Activity 10 uM | Activity 5 uM |
| --- | --- | --- | --- |
| Clc1ccc(Cl)c(NNc2cc(Cl)ccc2Cl)c1 [Compound 165765] | 1.34 | 4.44 |  |
| C(=C(\C[P+](c1ccccc1)(c1ccccc1)c1ccccc1)c1ccccc1)/c1ccccc1 [Compound 167334] |  | 12.373 | 11.387 |
| Oc1ccc2ccccc2c1/C=N/Nc1ccc2ccccc2n1 [Compound 168465] |  | 6 | 2.2 |
| N#Cc1c(F)c(F)c(Oc2c(F)c(F)c(F)c(F)c2F)c(F)c1Oc1c(F)c(F)c(F)c(F)c1F [Compound 168745] | 0.39 | 36.37 |  |
| NNC(=S)N/N=C/c1ccc([N+](=O)[O-])s1 [Compound 170334] | 0.98 | 4.45 |  |
| N#CC(C#N)=C/C=C/C=C/c1c(Cl)cccc1Cl [Compound 170444] | 0.66 | 12.56 |  |
| CC(C)c1ccc(N=Nc2ccc(N(C)C)cc2)cc1 [Compound 170582] | 3.72 | 4.44 |  |
| CN(C)c1ccc(N=Nc2ccc(Cl)c(Cl)c2)cc1 [Compound 170589] | 3.81 | 6.57 |  |
| CN(C)c1ccc(N=Nc2ccncc2)cc1 [Compound 170600] | 2.21 | 3.46 |  |
| c1ccc(N=Nc2n[nH]c3ccccc23)cc1 [Compound 170633] | 5.12 | 8.99 |  |
| Cc1cnccc1N=Nc1ccc(N(C)C)cc1 [Compound 170639] | 3.93 | 5.38 |  |
| Nc1cccc2scnc12 [Compound 170680] |  | 6.8 | 2.7 |
| Oc1cccc(C2=NNC(c3cccc(O)c3)=NN2)c1 [Compound 171129] | 5.1 | 7.98 |  |
| Oc1ccc(-c2nnc(-c3ccccc3)nn2)cc1 [Compound 171134] | 2.89 | 3.68 |  |
| COC1/C=C/OC2(C)Oc3c(C)c(O)c4c(O)c(c(C=NN5CCCCCCCC5)c(O)c4c3C2=O)NC(=O)/C(C)=C/C=C/C(C)C(O)C(C)C(O)C(C)C(OC(C)=O)C1C (stereo not shown) [Compound 172656] |  | 3.9 | 1.6 |
| O=C(Nc1cccc(Cl)c1)NC1CCC(CC2CCCCC2)CC1.O=C(Nc1cccc(Cl)c1)NC1CCC(CC2CCCCC2)CC1 (stereo not shown) [Compound 172879] | 1.11 | 3.6 |  |
| CC(C)(C)C1CCC(NC(=O)C(Cl)Cl)CC1.CC(C)(C)C1CCC(NC(=O)C(Cl)Cl)CC1 (stereo not shown) [Compound 173000] | 0.61 | 3.68 |  |
| CO[C@H]1/C=C/O[C@@]2(C)Oc3c(C)c(O)c4c(O)c(c(/C=N/N5CCN(Cc6cccc(C(F)(F)F)c6)CC5)c(O)c4c3C2=O)NC(=O)/C(C)=C\C=C\[C@H](C)[C@H](O)[C@@H](C)[C@@H](O)[C@@H](C)[C@H](OC(C)=O)[C@@H]1C [Compound 173710] | 0.83 | 16.35 |  |
| Cc1ccc(-c2nc(C#N)c(C#N)nc2-c2ccc(C)cc2)cc1 [Compound 174794] |  | 33.869 | 24.857 |

| Compound | Activity 2.5 uM | Activity 10 uM | Activity 5 uM |
| --- | --- | --- | --- |
| Oc1ccc(-c2nnc(-c3ccc(O)cc3)nn2)cc1 [Compound 174877] | 3.04 | 3.29 |  |
| [CH3][Hg][O]C(C)=O [Compound 176145] | 3.81 |  |  |
| CS(=O)(=O)c1ccc(/C=C2\C=Cc3ccccc32)cc1 [Compound 176657] | 1.67 | 4.64 |  |
| FC(F)(F)c1cccc(-c2nc3nc(Cl)c(Cl)nc3[nH]2)c1 [Compound 177407] |  | 21.876 | 16.53 |
| CCC[CH2][Sn]([CH2]CCC)([CH2]CCC)[n]1ccnc1 [Compound 179739] | 0.98 | 3.62 |  |
| CCCCC[CH2][Sn]([CH2]CCCCC)([CH2]CCCCC)[NH]S(=O)(=O)c1ccc(C)cc1 [Compound 179762] | 0.72 | 18.35 |  |
| Clc1nn2nnnc2c2ccccc12 [Compound 179944] | 0.54 | 6.1 |  |
| Cc1cc(C)nc(NC(=S)N/N=C/c2ccccn2)n1 [Compound 185066] |  | 20.339 | 44.91 |
| N#Cc1nc2c3ccccc3c(N=NC(=N)N[N+](=O)[O-])c-2[nH]c1C#N [Compound 186256] |  | 3.71 | 3.212 |
| N#Cc1nc2c3ccccc3c(N=NC(N)=S)c-2[nH]c1C#N [Compound 186257] |  | 59.966 | 49.982 |
| CC(/C=N/O)=N\O.CC(/C=N/O)=N\O.[Pd] [Compound 186948] |  | 4.4425 | 4.507 |
| COc1ccc(NC(=O)Nc2ccccc2Cl)c(Cl)c1 [Compound 191346] |  | 4.4055 | 3.018 |
| O=C(/C=C/c1ccccc1)Nc1ccc(Cl)c(Cl)c1 [Compound 191395] |  | 7.0185 | 3.609 |
| CC12CC3CC(C)(C1)CC(SCCN=C(N)CCl)(C3)C2.Cl [Compound 193484] | 1.24 | 22.72 |  |
| N#Cc1nc2c(nc1C#N)-c1ccccc1/C2=C1/C(=O)Cc2ccccc21 [Compound 193713] | 0.55 | 24.26 |  |
| CCC[CH2][Sn]1([CH2]CCC)[O]CC2(CCCCC2)C[O]1 [Compound 194646] | 8.08 | 6.24 |  |
| C=C1CC2(OC1=O)C(=O)N(C)c1ccccc12 (stereo not shown) [Compound 194807] | 1.72 | 3.45 |  |
| COc1ccc(NC(=S)Nc2ccccc2S)cc1 [Compound 201570] | 2.16 | 3.02 |  |
| C/C(=N\N=C(/C)c1ccc(F)cc1)c1ccc(F)cc1 [Compound 202060] |  | 5.049 | 3.63 |

| Compound | Activity 2.5 uM | Activity 10 uM | Activity 5 uM |
| --- | --- | --- | --- |
| CCS(=O)(=O)/C=C/c1ccc2ccccc2n1 [Compound 202491] | 0.5 | 3.05 |  |
| CCCC[CH2][Sn]([CH2]CCCC)[CH2]CCCC.CCCC[CH2][Sn]([CH2]CCCC)[CH2]CCCC [Compound 202674] | 4.67 |  |  |
| CCC[CH2][Sn]([C]#[C][Sn]([CH2]CCC)([CH2]CCC)[CH2]CCC)([CH2]CCC)[CH2]CCC [Compound 203205] | 3.12 |  |  |
| C(=P(c1ccccc1)(c1ccccc1)c1ccccc1)[P+](c1ccccc1)(c1ccccc1)c1ccccc1.[Br-].[Br-].[Cu+] [Compound 203423] | 7.7 | 3.09 |  |
| O=C(Nc1ccc(Cl)c(Cl)c1)c1ccc(Cl)cc1 [Compound 204163] | 2.44 | 4.83 |  |
| Cc1cc(Cl)c(Cl)cc1NC(=O)c1ccc(Cl)cc1Cl [Compound 204246] | 1.92 | 3.49 |  |
| COc1ccccc1C(=O)N/N=C\c1ccc(Cl)cc1Cl [Compound 204386] |  | 6.0225 | 5.252 |
| CN(C)c1ccc(N=Nc2cccc([N+](=O)[O-])c2)cc1 [Compound 204512] | 2.67 | 4.16 |  |
| Cc1ccc(N=Nc2ccc(N(C)C)cc2)cc1 [Compound 204514] | 3.6 | 4.66 |  |
| CN(C)c1ccc(N=Nc2cccc(Cl)c2)cc1 [Compound 204515] | 2.84 | 5.31 |  |
| O=C(Nc1ccc2ccccc2c1)c1ccccc1Cl [Compound 204548] | 2.82 | 3.99 |  |
| CSc1ccc(NC(=O)c2ccc(Cl)cc2Cl)cc1 [Compound 204668] |  | 4.923 | 5.386 |
| O=C(COc1ccc(Cl)cc1)Nc1nccs1 [Compound 204716] | 2.2 | 3.01 |  |
| CCc1ccc(NC(=O)Nc2ccc(Cl)c(Cl)c2)cc1 [Compound 204750] | 3.53 | 24.26 |  |
| O=C(Nc1ccc(Cl)c(Cl)c1)OCC1CC2C=CC1C2 (stereo not shown) [Compound 204751] | 2.91 | 4.76 |  |
| CCOC(=O)C1CCc2c(ccc3ccccc23)N1 (stereo not shown) [Compound 204931] |  | 3.539 | 3.1 |
| O=C(Nc1ccc2ccccc2c1)c1ccc(Cl)cc1 [Compound 205530] | 3.08 | 3.34 |  |
| O=C(Nc1ccc(Br)cc1)OCC1CC2C=CC1C2 (stereo not shown) [Compound 205545] | 2.41 | 4.54 |  |
